Where “and” joins values, the source holds several entries; their conditions need not be identical. Identical values can stand only once. Inconclusive results and toxic doses are left out.

26 compounds from PubChem BioAssay AID330 (DTP/NCI, 2004) can be followed below.

This experiment relates to P388 leukemia ip, CD2F1 mice, survival T/C. The experiment in a line: NCI In Vivo Anticancer Drug Screen. Data for tumor model P388 Leukemia (intraperitoneal) in CD2F1 (CDF1) mice. The settings on record: endpoint: median survival time, higher = longer survival. The gist of the method: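 Mice carrying the transplanted tumor received test compound or vehicle. Survival was recorded in each group, and the value is the treated-group measurement divided by that of the vehicle-treated control group.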

The mark [1] stands for this setting: dose: 12.5 mg/kg/injection, schedule: Q01DX001 (ip), vehicle: Klucel (hydroxypropylcellulose) (HPC).
The mark [2] stands for this setting: dose: 25.0 mg/kg/injection, schedule: Q01DX001 (ip), vehicle: Klucel (hydroxypropylcellulose) (HPC).
Setting [3] is: dose: 50.0 mg/kg/injection, schedule: Q01DX001 (ip), vehicle: Klucel (hydroxypropylcellulose) (HPC).
Where [4] appears, read: dose: 100.0 mg/kg/injection, schedule: Q01DX001 (ip), vehicle: Klucel (hydroxypropylcellulose) (HPC).
[5] abbreviates: dose: 400.0 mg/kg/injection, schedule: Q01DX001 (ip), vehicle: Klucel (hydroxypropylcellulose) (HPC).
The mark [6] stands for this setting: dose: 100.0 mg/kg/injection, schedule: Q04DX003 (ip), vehicle: saline with Tween-80.
[7] abbreviates: dose: 15.0 mg/kg/injection, schedule: Q01DX005 (ip), vehicle: saline with Tween-80.
The mark [8] stands for this setting: dose: 30.0 mg/kg/injection, schedule: Q01DX005 (ip), vehicle: saline with Tween-80.
Where [9] appears, read: dose: 25.0 mg/kg/injection, schedule: Q01DX005 (ip), vehicle: saline with Tween-80.
Setting [10] is: dose: 100.0 mg/kg/injection, schedule: Q01DX005 (ip), vehicle: saline with Tween-80.
The mark [11] stands for this setting: dose: 200.0 mg/kg/injection, schedule: Q01DX001 (ip), vehicle: Klucel (hydroxypropylcellulose) (HPC).
[12] abbreviates: dose: 25.0 mg/kg/injection, schedule: Q01DX009 (ip), vehicle: saline with Tween-80.
Setting [13] is: dose: 50.0 mg/kg/injection, schedule: Q01DX009 (ip), vehicle: saline with Tween-80.
Where [14] appears, read: dose: 60.0 mg/kg/injection, schedule: Q01DX005 (ip), vehicle: saline with Tween-80.
[15] abbreviates: dose: 240.0 mg/kg/injection, schedule: Q01DX005 (ip), vehicle: saline with Tween-80.
Where [16] appears, read: dose: 50.0 mg/kg/injection, schedule: Q01DX005 (ip), vehicle: Klucel (hydroxypropylcellulose) (HPC).
Setting [17] is: dose: 12.5 mg/kg/injection, schedule: Q01DX005 (ip), vehicle: Klucel (hydroxypropylcellulose) (HPC).
Where [18] appears, read: dose: 25.0 mg/kg/injection, schedule: Q01DX005 (ip), vehicle: Klucel (hydroxypropylcellulose) (HPC).

Turning to `C[CH2][Sn][CH2]C.O=C(CC(=O)c1ccccc1)c1ccccc1.O=C(CC(=O)c1ccccc1)c1ccccc1`, the T/C is, setting by setting: under setting [1], 115 % of control; under setting [2], 111 % of control; under setting [3], 115 % of control; under setting [4], 110 % of control; under setting [5], 115 % of control.

On to `COc1cccc(C=O)c1OC(=O)Oc1ccccc1`, for which the T/C was 111 % of control and 95 % of control (dose: 3.13 mg/kg/injection, schedule: Q01DX009 (ip), vehicle: distilled water + Tween-80); 111 % of control (dose: 6.25 mg/kg/injection, schedule: Q01DX009 (ip), vehicle: distilled water + Tween-80); 100 % of control and 104 % of control (dose: 12.5 mg/kg/injection, schedule: Q01DX009 (ip), vehicle: distilled water + Tween-80); 109 % of control and 113 % of control and 114 % of control (dose: 25.0 mg/kg/injection, schedule: Q01DX009 (ip), vehicle: distilled water + Tween-80); 100 % of control and 103 % of control (dose: 50.0 mg/kg/injection, schedule: Q01DX009 (ip), vehicle: distilled water + Tween-80).

Consider `C/C(=N\N=C(N)N)c1ccc2c(c1)Cc1ccccc1-2`, for which the T/C runs as follows: (dose: 25.0 mg/kg/injection, schedule: Q04DX002 (ip), vehicle: saline with Tween-80) 101 % of control; (dose: 50.0 mg/kg/injection, schedule: Q04DX002 (ip), vehicle: saline with Tween-80) 103 % of control.

As to `O=C(CC(O)(C(F)(F)F)C(F)(F)F)c1cccs1`, the T/C (dose: 50.0 mg/kg/injection, schedule: Q04DX003 (ip), vehicle: saline with Tween-80) was 116 % of control and the T/C under setting [6] was 100 % of control.

Turning to `Nc1nc(N)c2nc(CNc3ccc(Cl)c(Cl)c3)cnc2n1`, the T/C is 98 % of control under setting [7] and 89 % of control under setting [8].

With `CC1OC(Sc2ncc[nH]2)C(O)C(O)C1O` (stereo not drawn), the T/C reads like this: (dose: 60.0 mg/kg/injection, schedule: Q01DX005 (ip), vehicle: saline) 95 % of control; (dose: 120.0 mg/kg/injection, schedule: Q01DX005 (ip), vehicle: saline) 94 % of control; (dose: 240.0 mg/kg/injection, schedule: Q01DX005 (ip), vehicle: saline) 100 % of control.

`CNC(=O)OCc1c(COC(=O)NC)c2n(c1C)CS(=O)(=O)C2`: the T/C under setting [9] is 122 % of control; the T/C under setting [10] was 204 % of control and 211 % of control.

For `Oc1ccccc1/C=N/Nc1nnnn1-c1ccccc1`, the T/C runs as follows: under setting [4], 102 % of control; under setting [11], 102 % of control; under setting [5], 98 % of control.

Turning to `O=C(O)CCCc1cc(I)c(N(CCCl)CCCl)c(I)c1`, the T/C by setting is: (dose: 12.5 mg/kg/injection, schedule: Q01DX009 (ip), vehicle: saline with Tween-80) 121 % of control; under setting [12], 107 % of control; under setting [13], 121 % of control.

With `COc1ccc(C(C)=O)cc1CSC(=S)N1CCSCC1`, the T/C reads like this: under setting [7], 104 % of control; under setting [8], 99 % of control; under setting [14], 90 % of control and 92 % of control; under setting [15], 88 % of control.

Turning to `CC(=O)OCc1c(COC(C)=O)c(-c2ccccc2)n2c1CCC2`, the T/C is 110 % of control (dose: 12.5 mg/kg/injection, schedule: Q01DX009 (ip), vehicle: Klucel (hydroxypropylcellulose) (HPC)) and 87 % of control (dose: 50.0 mg/kg/injection, schedule: Q01DX009 (ip), vehicle: Klucel (hydroxypropylcellulose) (HPC)).

For `CCN(CC)CCOc1ccc(C2N3Cc4ccccc4CN2c2ccccc23)cc1`, the T/C was 99 % of control under setting [4], 108 % of control under setting [11] and 99 % of control under setting [5].

For `CC(=O)NC(=S)Nc1ccccc1`, the T/C was 100 % of control under setting [2], 101 % of control under setting [3] and 103 % of control under setting [4].

Consider `[O-][N+](CCO)(CCO)c1ncnc2nc[nH]c12`, for which the T/C is 102 % of control (dose: 50.0 mg/kg/injection, schedule: Q01DX005 (ip), vehicle: suspension in saline); 106 % of control (dose: 100.0 mg/kg/injection, schedule: Q01DX005 (ip), vehicle: suspension in saline); 102 % of control (dose: 200.0 mg/kg/injection, schedule: Q01DX005 (ip), vehicle: suspension in saline).

As for `CC(=O)Nc1ccc(S(=O)(=O)N/N=C/C(=O)O)cc1`, the T/C is 101 % of control (dose: 3.13 mg/kg/injection, schedule: Q01DX009 (ip), vehicle: other); 111 % of control (dose: 6.25 mg/kg/injection, schedule: Q01DX009 (ip), vehicle: other); 118 % of control (dose: 12.5 mg/kg/injection, schedule: Q01DX009 (ip), vehicle: other).

Take `COc1ccc(NP2(=O)N(Cc3ccc(Cl)cc3)CCCN2Cc2ccc(Cl)cc2)cc1`: the T/C under setting [16] is 100 % of control and the T/C (dose: 100.0 mg/kg/injection, schedule: Q01DX005 (ip), vehicle: Klucel (hydroxypropylcellulose) (HPC)) was 88 % of control.

On to `COc1nc(N)c2ncn(C3CCCO3)c2n1` (stereo not drawn), for which the T/C is, setting by setting: under setting [1], 100 % of control; under setting [2], 106 % of control.

Consider `CC1(C)COC(=O)C(C#N)=C1CBr`, for which the T/C is, setting by setting: under setting [17], 105 % of control; under setting [18], 105 % of control; under setting [16], 99 % of control and 116 % of control.

In the case of `CSc1nc(N)n2nc(C3CC3)cc2n1`, the T/C runs as follows: under setting [14], 102 % of control; (dose: 120.0 mg/kg/injection, schedule: Q01DX005 (ip), vehicle: saline with Tween-80) 100 % of control; under setting [15], 100 % of control.

In the case of `O=C(OCC(OC(=O)c1ccccc1)C(OC(=O)c1ccccc1)C(OC(=O)c1ccccc1)C(OC(=O)c1ccccc1)c1nn[nH]n1)c1ccccc1` (stereo not drawn), the T/C was 94 % of control (dose: 12.5 mg/kg/injection, schedule: Q01DX005 (ip), vehicle: saline with Tween-80); 86 % of control under setting [9]; 90 % of control and 100 % of control (dose: 50.0 mg/kg/injection, schedule: Q01DX005 (ip), vehicle: saline with Tween-80); 100 % of control under setting [10]; 96 % of control (dose: 200.0 mg/kg/injection, schedule: Q01DX005 (ip), vehicle: saline with Tween-80).

Turning to `O=C1C=CC(=O)C2=C1C1CCCC1C1CCCC21` (stereo not drawn), the T/C (dose: 25.0 mg/kg/injection, schedule: Q01DX009 (ip), vehicle: saline) is 123 % of control; the T/C (dose: 50.0 mg/kg/injection, schedule: Q01DX009 (ip), vehicle: saline) was 105 % of control; the T/C (dose: 100.0 mg/kg/injection, schedule: Q01DX009 (ip), vehicle: saline) was 113 % of control.

As for `N#CC(Br)C(N)=O` (stereo not drawn), the T/C by setting is: (dose: 1.25 mg/kg/injection, schedule: Q01DX009 (ip), vehicle: saline with Tween-80) 104 % of control; (dose: 2.5 mg/kg/injection, schedule: Q01DX009 (ip), vehicle: saline with Tween-80) 124 % of control; (dose: 5.0 mg/kg/injection, schedule: Q01DX009 (ip), vehicle: saline with Tween-80) 119 % of control.

As for `CC(C)(C)C(O)c1cccnc1` (stereo not drawn), the T/C was 110 % of control under setting [6] and 101 % of control (dose: 200.0 mg/kg/injection, schedule: Q04DX003 (ip), vehicle: saline with Tween-80).

On to `O=C1c2cccc3cc([N+](=O)[O-])cc(c23)C(=O)N1CCNCCNCCNCCN1C(=O)c2cccc3cc([N+](=O)[O-])cc(c23)C1=O`, for which the T/C is 107 % of control and 124 % of control (dose: 5.0 mg/kg/injection, schedule: Q04DX002 (ip), vehicle: saline with Tween-80); 122 % of control (dose: 10.0 mg/kg/injection, schedule: Q04DX002 (ip), vehicle: saline with Tween-80); 122 % of control (dose: 80.0 mg/kg/injection, schedule: Q04DX002 (ip), vehicle: saline with Tween-80).

For `Nc1nc2nc(CBr)c(CBr)nc2c(=O)[nH]1`, the T/C is 115 % of control under setting [12]; 118 % of control under setting [13]; 122 % of control (dose: 100.0 mg/kg/injection, schedule: Q01DX009 (ip), vehicle: saline with Tween-80); 100 % of control (dose: 200.0 mg/kg/injection, schedule: Q01DX009 (ip), vehicle: saline with Tween-80).

As to `N/C(=N\[N+](=O)[O-])N1CCCCCC1`, the T/C is, setting by setting: under setting [17], 106 % of control; under setting [18], 100 % of control; under setting [16], 107 % of control.
